The values that follow come from patent US9309248B2, “Azaindolines” (Hoffmann-La Roche Inc., priority 2012, dated 2016).

The target in one test is T1, BIR2 domain of XIAP (Homo sapiens, UniProt P98170, C202A/C213G).
T1 construct: 6× Histidine-tagged BIR2 domain, corresponding to amino acids 124-240 of XIAP
Description: TR-FRET assay for BIR2 (inhibition of binding of XIAP BIR2 domain to SMAC-derived Peptide A). Conditions: 6x Histidine-tagged BIR2 domain (amino acids 124-240 of XIAP) 10 nM, Peptide A 20 nM. The procedure: (§1) TR-FRET Assay for BIR2 and BIR3
(§2) The ability of a test compound to inhibit the binding of BIR2 and/or BIR3 domains of the XIAP protein to Peptide A (a SMAC-derived peptide described below) evidences that the test compound acts as a SMAC-mimetic resulting in reactivation of a cell's apoptotic pathway.
(§3) The peptides were labeled with the fluorescent tags FITC or TAMRA and Kd values were determined by fluorescence polarization assay. […] The peptide sequence was derivatized with biotin to provide […]-(ε-biotin)-OH 1:2 TFA as the substrate for the TR-FRET assay.
The XIAP protein sequence was obtained from the SWISS-PROT protein sequence database and the BIR2 and BIR3 domains were derived from that. The sequence of the BIR2 domain used for the TR-FRET assay is […].
Time-resolved fluorescence resonance energy transfer (TR-FRET) signals were measured 1 hour later at room temperature. Test compound potency was assessed at 10 serially diluted concentrations. Percentage of inhibition at each concentration was determined to generate an IC50 value for each test compound.
For orientation: Time-resolved FRET reads energy transfer from a long-lived donor to a nearby acceptor.

The target of a further test is T2, BIR3 domain of XIAP (Homo sapiens, UniProt P98170).
T2 construct: BIR3 domain, corresponding to amino acids 241-356 of XIAP
T2 sequence (P98170 with tags, fused parts or gaps): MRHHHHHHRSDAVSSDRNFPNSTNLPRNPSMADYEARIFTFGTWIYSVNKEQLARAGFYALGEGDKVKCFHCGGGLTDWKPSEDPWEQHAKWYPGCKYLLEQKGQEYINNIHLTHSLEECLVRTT
Description: TR-FRET assay for BIR3 (inhibition of binding of XIAP BIR3 domain to SMAC-derived Peptide A). As to conditions: 6x Histidine-tagged BIR3 domain (amino acids 241-356 of XIAP) 10 nM, Peptide A 20 nM. The protocol:
as §1, §2, §3
The sequence of the BIR3 domain used for the TR-FRET assay is […]
Ten nanomolar of 6× Histidine-tagged BIR2 domain, corresponding to amino acids 124-240 of XIAP, or BIR3 domain, corresponding to amino acids 241-356 of XIAP, was mixed with 20 nM of the peptide […]-(z-biotin)-OH 1:2 TFA, in the presence of 50 mM Tris-Cl, pH 7.5, 100 mM NaCl, 1 mM dithiothreitol (DTT) and 0.1 mg/mL bovine serum albumin (BSA). Following a […] incubation at 37° C., Europium-Streptavidin and Allophycocyanin conjugated anti-Histidine antibody were added to a final concentration of 1.5 nM and 15 nM, respectively. Time-resolved fluorescence resonance energy transfer (TR-FRET) signals were measured 1 hour later at room temperature. Test compound potency was assessed at 10 serially diluted concentrations. Percentage of inhibition at each concentration was determined to generate an IC50 value for each test compound.

T1 sequence (P98170 with tags, fused parts or gaps C202A/C213G): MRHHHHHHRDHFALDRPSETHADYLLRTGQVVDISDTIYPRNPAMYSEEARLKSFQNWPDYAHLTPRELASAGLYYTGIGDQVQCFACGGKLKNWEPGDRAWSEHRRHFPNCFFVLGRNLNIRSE

As for `CC(C)[C@H](NC(=O)[C@H](C)NCCS(C)(=O)=O)C(=O)N1c2ncccc2C[C@H]1C(=O)Nc1c(F)cccc1F` [Example 92, (S)-1-{(S)-2-[(S)-2-(2-Methanesulfonyl-ethylamino)-propionylamino]-3-methyl-butyryl}-2,3-dihydro-1H-pyrrolo[2,3-b]pyridine-2-carboxylic acid (2,6-difluoro-phenyl)-amide], the IC50 at BIR2 domain of XIAP was 2570 nM; on BIR3 domain of XIAP it was over 54800 nM.

For the compound `CN[C@@H](C)C(=O)N[C@H](C(=O)N1c2ncccc2C[C@@H]1C(=O)Nc1ccccc1C)C(C)C` [Example 13, (R)-1-[(S)-3-Methyl-2-((S)-2-methylamino-propionylamino)-butyryl]-2,3-dihydro-1H-pyrrolo[2,3-b]pyridine-2-carboxylic acid o-tolylamide], the IC50 at BIR2 domain of XIAP and on BIR3 domain of XIAP was over 54800 nM in each case.

Turning to `CN[C@@H](C)C(=O)N[C@H](C(=O)N1c2ncccc2C[C@H]1C(=O)Nc1ccc(F)cc1C)C(C)C` [Example 22, (S)-1-[(S)-3-Methyl-2-((S)-2-methylamino-propionylamino)-butyryl]-2,3-dihydro-1H-pyrrolo[2,3-b]pyridine-2-carboxylic acid (4-fluoro-2-methyl-phenyl)-amide], the IC50 at BIR2 domain of XIAP was 103 nM; on BIR3 domain of XIAP, over 54800 nM.

As for `CCN[C@@H](C)C(=O)N[C@H](C(=O)N1c2ncccc2C[C@H]1C(=O)Nc1ccccc1)C1CCCCC1` [Example 76, (S)-1-[(S)-2-Cyclohexyl-2-((S)-2-ethylamino-propionylamino)-acetyl]-2,3-dihydro-1H-pyrrolo[2,3-b]pyridine-2-carboxylic acid phenylamide], the results for the IC50 at BIR2 domain of XIAP and at BIR3 domain of XIAP were 353 nM and over 54800 nM, respectively.

For the compound `CN[C@@H](C)C(=O)N[C@H](C(=O)N1c2ncccc2C[C@H]1C(=O)Nc1ccc(S(C)(=O)=O)cc1F)C(C)C` [Example 50, (S)-1-[(S)-3-Methyl-2-((S)-2-methylamino-propionylamino)-butyryl]-2,3-dihydro-1H-pyrrolo[2,3-b]pyridine-2-carboxylic acid (2-fluoro-4-methanesulfonyl-phenyl)-amide], the IC50 on BIR2 domain of XIAP was 89.3 nM; at BIR3 domain of XIAP it was over 54800 nM.

Take `CN[C@@H](C)C(=O)N[C@H](C(=O)N1c2ncccc2C[C@@H]1C(=O)NCc1ccccc1)C(C)C` [Example 15, (R)-1-[(S)-3-Methyl-2-((S)-2-methylamino-propionylamino)-butyryl]-2,3-dihydro-1H-pyrrolo[2,3-b]pyridine-2-carboxylic acid benzylamide]: the results for the IC50 on BIR2 domain of XIAP and at BIR3 domain of XIAP were 1800 nM and 45900 nM, respectively.

Turning to `CN[C@@H](C)C(=O)N[C@H](C(=O)N1c2ncccc2C[C@H]1C(=O)Nc1ccc(C2CCNCC2)cc1)C(C)C` [Example 41, (S)-1-[(S)-3-Methyl-2-((S)-2-methylamino-propionylamino)-butyryl]-2,3-dihydro-1H-pyrrolo[2,3-b]pyridine-2-carboxylic acid (4-piperidin-4-yl-phenyl)-amide], the IC50 at BIR2 domain of XIAP is 701 nM; at BIR3 domain of XIAP, over 54800 nM.

On to `CN[C@@H](C)C(=O)N[C@H](C(=O)N1c2ncccc2C[C@H]1C(=O)Nc1ccc(Br)cc1F)C(C)C` [Example 63, (S)-1-[(S)-3-Methyl-2-((S)-2-methylamino-propionylamino)-butyryl]-2,3-dihydro-1H-pyrrolo[2,3-b]pyridine-2-carboxylic acid (4-bromo-2-fluoro-phenyl)-amide], for which the IC50 was 32 nM at BIR2 domain of XIAP and over 54800 nM at BIR3 domain of XIAP.

As to `CN[C@@H](C)C(=O)N[C@H](C(=O)N1CC(C)(C)c2cccnc21)C(C)C` [Example 2, (S)—N—[(S)-1-(3,3-Dimethyl-2,3-dihydro-pyrrolo[2,3-b]pyridine-1-carbonyl)-2-methyl-propyl]-2-methylamino-propionamide], the half-maximal inhibitory concentration (IC50) is 3880 nM at BIR2 domain of XIAP and over 54800 nM on BIR3 domain of XIAP.

In the case of `CN[C@@H](C)C(=O)N[C@H](C(=O)N1c2ncccc2C[C@H]1C(=O)Nc1c(F)cccc1F)C(C)C` [Example 28, (S)-1-[(S)-3-Methyl-2-((S)-2-methylamino-propionylamino)-butyryl]-2,3-dihydro-1H-pyrrolo[2,3-b]pyridine-2-carboxylic acid (2,6-difluoro-phenyl)-amide], the IC50 at BIR2 domain of XIAP is 14.4 nM; at BIR3 domain of XIAP, over 54800 nM.

Regarding `CN[C@@H](C)C(=O)N[C@H](C(=O)N1c2ncccc2C[C@@H]1C(=O)Nc1ccccc1)C1CCCCC1` [Example 79, (R)-1-[(S)-2-Cyclohexyl-2-((S)-2-methylamino-propionylamino)-acetyl]-2,3-dihydro-1H-pyrrolo[2,3-b]pyridine-2-carboxylic acid phenylamide], the IC50 at BIR2 domain of XIAP and at BIR3 domain of XIAP was over 54800 nM throughout.

`CN[C@@H](C)C(=O)N[C@H](C(=O)N1c2ncccc2C[C@H]1C(=O)Nc1c(C)cccc1F)C1CCOCC1` [Example 99, (S)-1-[(S)-2-((S)-2-Methylamino-propionylamino)-2-(tetrahydro-pyran-4-yl)-acetyl]-2,3-dihydro-1H-pyrrolo[2,3-b]pyridine-2-carboxylic acid (2-fluoro-6-methyl-phenyl)-amide]: the IC50 was 11.6 nM at BIR2 domain of XIAP and over 54800 nM on BIR3 domain of XIAP.

For the compound `CN[C@@H](C)C(=O)N[C@H](C(=O)N1c2ncccc2C[C@H]1C(=O)Nc1ccc(C#N)cc1F)C(C)C` [Example 58, (S)-1-[(S)-3-Methyl-2-((S)-2-methylamino-propionylamino)-butyryl]-2,3-dihydro-1H-pyrrolo[2,3-b]pyridine-2-carboxylic acid (4-cyano-2-fluoro-phenyl)-amide], the IC50 at BIR2 domain of XIAP was 140 nM; at BIR3 domain of XIAP, over 54800 nM.

On to `CN[C@@H](C)C(=O)N[C@H](C(=O)N1c2ncccc2C[C@H]1C(=O)Nc1cccc2ccccc12)C(C)C` [Example 19, (S)-1-[(S)-3-Methyl-2-((S)-2-methylamino-propionylamino)-butyryl]-2,3-dihydro-1H-pyrrolo[2,3-b]pyridine-2-carboxylic acid naphthalen-1-ylamide], for which the 50% inhibitory concentration (IC50) at BIR2 domain of XIAP stood at 54.5 nM; on BIR3 domain of XIAP it was 35100 nM.

Take `[2H]C([2H])([2H])N[C@@H](CC)C(=O)N[C@H](C(=O)N1c2ncccc2C[C@H]1C(=O)Nc1ccccc1)C(C)C` [Example 86, (S)-1-[(S)-3-Methyl-2-((S)-2-(d3-methyl)amino-butyrylamino)-butyryl]-2,3-dihydro-1H-pyrrolo[2,3-b]pyridine-2-carboxylic acid phenylamide]: the results for the IC50 at BIR2 domain of XIAP and on BIR3 domain of XIAP were 65.6 nM and over 54800 nM, respectively.

As for `CN[C@@H](C)C(=O)N[C@@H](CCS(C)(=O)=O)C(=O)N1c2ncccc2C[C@H]1C(=O)Nc1ccccc1` [Example 96, 1-[(S)-4-Methanesulfonyl-2-((S)-2-methylamino-propionylamino)-butyryl]-2,3-dihydro-1H-pyrrolo[2,3-b]pyridine-2-carboxylic acid phenylamide], the IC50 was 108 nM at BIR2 domain of XIAP and over 54800 nM on BIR3 domain of XIAP.

On to `CC(C)[C@H](NC(=O)[C@H](C)NCCO)C(=O)N1c2ncccc2C[C@H]1C(=O)Nc1ccccc1` [Example 89, (S)-1-{(S)-2-[(S)-2-(2-Hydroxy-ethylamino)-propionylamino]-3-methyl-butyryl}-2,3-dihydro-1H-pyrrolo[2,3-b]pyridine-2-carboxylic acid phenylamide], for which the IC50 on BIR2 domain of XIAP is 266 nM; on BIR3 domain of XIAP, over 54800 nM.

For the compound `CN[C@@H](C)C(=O)N[C@H](C(=O)N1c2ncccc2C[C@H]1C(=O)Nc1c(F)cccc1Cl)C(C)C` [Example 70, (S)-1-[(S)-3-Methyl-2-((S)-2-methylamino-propionylamino)-butyryl]-2,3-dihydro-1H-pyrrolo[2,3-b]pyridine-2-carboxylic acid (2-chloro-6-fluoro-phenyl)-amide], the IC50 at BIR2 domain of XIAP is 21.5 nM; on BIR3 domain of XIAP, over 54800 nM.

Regarding `CN[C@@H](C)C(=O)N[C@H](C(=O)N1c2ncccc2C[C@H]1C(=O)Nc1cc(F)ccc1F)C(C)C` [Example 61, (S)-1-[(S)-3-Methyl-2-((S)-2-methylamino-propionylamino)-butyryl]-2,3-dihydro-1H-pyrrolo[2,3-b]pyridine-2-carboxylic acid (2,5-difluoro-phenyl)-amide], the IC50 was 34.8 nM at BIR2 domain of XIAP and over 54800 nM on BIR3 domain of XIAP.

In the case of `CN[C@@H](C)C(=O)N[C@H](C(=O)N1c2ncccc2C[C@H]1C(=O)Nc1ncc(C)s1)C(C)C` [Example 67, (S)-1-[(S)-3-Methyl-2-((S)-2-methylamino-propionylamino)-butyryl]-2,3-dihydro-1H-pyrrolo[2,3-b]pyridine-2-carboxylic acid (5-methyl-thiazol-2-yl)-amide], the results for the IC50 on BIR2 domain of XIAP and at BIR3 domain of XIAP were 92.6 nM and over 54800 nM, respectively.

For orientation: IC50 means the point on the concentration scale where inhibition reaches its midpoint. A high value points to lower potency.
